# In the NIST ThermoML archive (doi:10.1021/je9004036):
# Several values for one entry are separate records, joined by “and”; a condition that tells them apart may be missing. Identical values can stand only once. Numbers after ± are expanded uncertainties.
# Experiments:
# [1] = for vapor or sublimation pressure: Liquid, Calculated from knudsen effusion weight loss; for Normal melting temperature: Crystal, DTA
# [2] = Molar enthalpy of transition or fusion; details: Crystal 1; DSC
structure (smiles),measurement,setting,value
COc1cccc(C(=O)O)c1N [2-amino-3-methoxybenzoic acid],vapor or sublimation pressure,[1]; 349.12 K,0.000123 ± 2e-05 kPa and 0.000121 ± 2e-05 kPa
same,vapor or sublimation pressure,[1]; 351.18 K,0.000152 ± 2.1e-05 kPa and 0.00015 ± 2.1e-05 kPa and 0.000149 ± 2.1e-05 kPa
same,vapor or sublimation pressure,[1]; 353.19 K,0.000194 ± 2.1e-05 kPa and 0.000186 ± 2.1e-05 kPa and 0.000183 ± 2.1e-05 kPa
same,vapor or sublimation pressure,[1]; 355.13 K,0.000235 ± 2.2e-05 kPa and 0.000232 ± 2.2e-05 kPa and 0.000234 ± 2.2e-05 kPa
same,vapor or sublimation pressure,[1]; 357.18 K,0.000297 ± 2.3e-05 kPa and 0.000285 ± 2.2e-05 kPa and 0.000283 ± 2.2e-05 kPa
same,vapor or sublimation pressure,[1]; 359.12 K,0.000362 ± 2.4e-05 kPa and 0.000356 ± 2.4e-05 kPa and 0.000355 ± 2.4e-05 kPa
same,vapor or sublimation pressure,[1]; 360.13 K,0.000407 ± 2.5e-05 kPa and 0.000404 ± 2.5e-05 kPa and 0.0004 ± 2.5e-05 kPa
same,vapor or sublimation pressure,[1]; 361.16 K,0.000446 ± 2.6e-05 kPa and 0.000437 ± 2.5e-05 kPa and 0.000431 ± 2.5e-05 kPa
same,vapor or sublimation pressure,[1]; 363.18 K,0.000552 ± 2.8e-05 kPa and 0.000537 ± 2.8e-05 kPa and 0.000527 ± 2.7e-05 kPa
same,vapor or sublimation pressure,[1]; 367.18 K,0.000847 ± 3.6e-05 kPa and 0.000823 ± 3.5e-05 kPa and 0.000808 ± 3.5e-05 kPa
same,vapor or sublimation pressure,[1]; 369.18 K,0.001031 ± 8e-05 kPa and 0.001004 ± 7.8e-05 kPa and 0.000983 ± 4e-05 kPa
same,Normal melting temperature,[1],169.86 ± 0.63 °C
same,Molar enthalpy of transition or fusion,[2],24.2 ± 0.55 kJ/mol
COc1ccc(C(=O)O)cc1N [3-amino-4-methoxybenzoic acid],vapor or sublimation pressure,[1]; 379.67 K,0.00014 ± 2.1e-05 kPa and 0.000138 ± 2.1e-05 kPa and 0.000135 ± 2.1e-05 kPa
same,vapor or sublimation pressure,[1]; 381.72 K,0.000174 ± 2.1e-05 kPa and 0.000169 ± 2.1e-05 kPa and 0.000164 ± 2.1e-05 kPa
same,vapor or sublimation pressure,[1]; 383.68 K,0.000215 ± 2.1e-05 kPa and 0.000205 ± 2.1e-05 kPa and 0.000199 ± 2.1e-05 kPa
same,vapor or sublimation pressure,[1]; 385.16 K,0.000247 ± 2.2e-05 kPa and 0.000252 ± 2.2e-05 kPa
same,vapor or sublimation pressure,[1]; 387.19 K,0.000306 ± 2.3e-05 kPa and 0.000298 ± 2.3e-05 kPa and 0.00029 ± 2.2e-05 kPa
same,vapor or sublimation pressure,[1]; 389.18 K,0.000382 ± 2.4e-05 kPa and 0.000363 ± 2.4e-05 kPa and 0.000353 ± 2.4e-05 kPa
same,vapor or sublimation pressure,[1]; 391.17 K,0.000455 ± 2.6e-05 kPa
same,vapor or sublimation pressure,[1]; 393.21 K,0.000568 ± 2.8e-05 kPa and 0.000557 ± 2.8e-05 kPa and 0.000536 ± 2.8e-05 kPa
same,vapor or sublimation pressure,[1]; 395.18 K,0.000698 ± 3.2e-05 kPa and 0.000676 ± 3.1e-05 kPa
same,vapor or sublimation pressure,[1]; 397.2 K,0.000832 ± 3.6e-05 kPa and 0.000811 ± 3.5e-05 kPa and 0.000786 ± 3.4e-05 kPa
same,vapor or sublimation pressure,[1]; 399.18 K,0.001028 ± 8e-05 kPa and 0.000967 ± 4e-05 kPa and 0.000941 ± 3.9e-05 kPa
same,Normal melting temperature,[1],204.72 ± 0.6 °C
same,Molar enthalpy of transition or fusion,[2],25.3 ± 0.57 kJ/mol
COc1ccc(N)c(C(=O)O)c1 [2-amino-5-methoxybenzoic acid],vapor or sublimation pressure,[1]; 353.13 K,0.0001 ± 2e-05 kPa and 0.000101 ± 2e-05 kPa
same,vapor or sublimation pressure,[1]; 355.15 K,0.000131 ± 2.1e-05 kPa and 0.000128 ± 2.1e-05 kPa and 0.00013 ± 2.1e-05 kPa
same,vapor or sublimation pressure,[1]; 357.2 K,0.000159 ± 2.1e-05 kPa and 0.000158 ± 2.1e-05 kPa
same,vapor or sublimation pressure,[1]; 359.18 K,0.000202 ± 2.1e-05 kPa and 0.000196 ± 2.1e-05 kPa and 0.000195 ± 2.1e-05 kPa
same,vapor or sublimation pressure,[1]; 361.15 K,0.000251 ± 2.2e-05 kPa and 0.000249 ± 2.2e-05 kPa and 0.000252 ± 2.2e-05 kPa
same,vapor or sublimation pressure,[1]; 363.2 K,0.000316 ± 2.3e-05 kPa and 0.000304 ± 2.3e-05 kPa and 0.000306 ± 2.3e-05 kPa
same,vapor or sublimation pressure,[1]; 365.18 K,0.000384 ± 2.4e-05 kPa and 0.000376 ± 2.4e-05 kPa
same,vapor or sublimation pressure,[1]; 367.16 K,0.000479 ± 2.6e-05 kPa and 0.000458 ± 2.6e-05 kPa and 0.000447 ± 2.6e-05 kPa
same,vapor or sublimation pressure,[1]; 369.18 K,0.000577 ± 2.9e-05 kPa and 0.000562 ± 2.8e-05 kPa and 0.000553 ± 2.8e-05 kPa
same,vapor or sublimation pressure,[1]; 371.14 K,0.000723 ± 3.3e-05 kPa and 0.000704 ± 3.2e-05 kPa and 0.000716 ± 3.2e-05 kPa
same,vapor or sublimation pressure,[1]; 373.17 K,0.000898 ± 3.8e-05 kPa and 0.000864 ± 3.7e-05 kPa and 0.000856 ± 3.6e-05 kPa
same,vapor or sublimation pressure,[1]; 375.17 K,0.001076 ± 8.5e-05 kPa and 0.001049 ± 8.2e-05 kPa and 0.001039 ± 8.1e-05 kPa
same,Normal melting temperature,[1],151.81 ± 0.84 °C
same,Molar enthalpy of transition or fusion,[2],22.9 ± 0.52 kJ/mol
COc1cc(C(=O)O)ccc1N [4-amino-3-methoxybenzoic acid],vapor or sublimation pressure,[1]; 373.14 K,0.000103 ± 2e-05 kPa and 0.000102 ± 2e-05 kPa
same,vapor or sublimation pressure,[1]; 375.15 K,0.00013 ± 2.1e-05 kPa and 0.000127 ± 2.1e-05 kPa and 0.000126 ± 2.1e-05 kPa
same,vapor or sublimation pressure,[1]; 377.18 K,0.000163 ± 2.1e-05 kPa and 0.000156 ± 2.1e-05 kPa and 0.000153 ± 2.1e-05 kPa
same,vapor or sublimation pressure,[1]; 379.17 K,0.000192 ± 2.1e-05 kPa and 0.000186 ± 2.1e-05 kPa and 0.000196 ± 2.1e-05 kPa
same,vapor or sublimation pressure,[1]; 381.17 K,0.00025 ± 2.2e-05 kPa and 0.00024 ± 2.2e-05 kPa and 0.000232 ± 2.2e-05 kPa
same,vapor or sublimation pressure,[1]; 383.18 K,0.000301 ± 2.3e-05 kPa
same,vapor or sublimation pressure,[1]; 385.16 K,0.000384 ± 2.4e-05 kPa and 0.000376 ± 2.4e-05 kPa and 0.000374 ± 2.4e-05 kPa
same,vapor or sublimation pressure,[1]; 387.17 K,0.000476 ± 2.6e-05 kPa and 0.000455 ± 2.6e-05 kPa and 0.000444 ± 2.5e-05 kPa
same,vapor or sublimation pressure,[1]; 389.16 K,0.000587 ± 2.9e-05 kPa and 0.000573 ± 2.9e-05 kPa and 0.00057 ± 2.8e-05 kPa
same,vapor or sublimation pressure,[1]; 391.17 K,0.000724 ± 3.3e-05 kPa and 0.000696 ± 3.2e-05 kPa and 0.000678 ± 3.1e-05 kPa
same,vapor or sublimation pressure,[1]; 393.17 K,0.000864 ± 3.7e-05 kPa and 0.000841 ± 3.6e-05 kPa and 0.000826 ± 3.5e-05 kPa
same,vapor or sublimation pressure,[1]; 395.17 K,0.001037 ± 8.1e-05 kPa and 0.001005 ± 7.8e-05 kPa and 0.000971 ± 4e-05 kPa
same,Normal melting temperature,[1],189.20 ± 1.6 °C
same,Molar enthalpy of transition or fusion,[2],25.3 ± 0.61 kJ/mol
COc1cc(N)cc(C(=O)O)c1 [3-amino-5-methoxybenzoic acid],vapor or sublimation pressure,[1]; 380.16 K,0.000125 ± 2e-05 kPa and 0.000123 ± 2e-05 kPa
same,vapor or sublimation pressure,[1]; 381.19 K,0.000138 ± 2.1e-05 kPa and 0.000135 ± 2.1e-05 kPa and 0.000131 ± 2.1e-05 kPa
same,vapor or sublimation pressure,[1]; 383.18 K,0.000174 ± 2.1e-05 kPa and 0.000164 ± 2.1e-05 kPa and 0.000156 ± 2.1e-05 kPa
same,vapor or sublimation pressure,[1]; 385.16 K,0.000201 ± 2.1e-05 kPa and 0.000217 ± 2.1e-05 kPa and 0.000208 ± 2.1e-05 kPa
same,vapor or sublimation pressure,[1]; 387.2 K,0.000269 ± 2.2e-05 kPa and 0.000253 ± 2.2e-05 kPa and 0.000242 ± 2.2e-05 kPa
same,vapor or sublimation pressure,[1]; 389.16 K,0.000325 ± 2.3e-05 kPa and 0.000316 ± 2.3e-05 kPa and 0.000301 ± 2.3e-05 kPa
same,vapor or sublimation pressure,[1]; 393.19 K,0.000511 ± 2.7e-05 kPa and 0.00049 ± 2.6e-05 kPa and 0.000473 ± 2.6e-05 kPa
same,vapor or sublimation pressure,[1]; 395.18 K,0.000631 ± 3e-05 kPa and 0.000591 ± 2.9e-05 kPa and 0.00057 ± 2.8e-05 kPa
same,vapor or sublimation pressure,[1]; 397.18 K,0.000773 ± 3.4e-05 kPa
same,vapor or sublimation pressure,[1]; 399.19 K,0.000917 ± 3.8e-05 kPa and 0.000887 ± 3.7e-05 kPa and 0.000862 ± 3.7e-05 kPa
same,vapor or sublimation pressure,[1]; 400.18 K,0.001003 ± 7.8e-05 kPa and 0.00094 ± 3.9e-05 kPa and 0.000926 ± 3.8e-05 kPa
same,Normal melting temperature,[1],183.79 ± 0.87 °C
same,Molar enthalpy of transition or fusion,[2],22.4 ± 0.51 kJ/mol
